In experiment [1] the target is CREBBP bromodomain (His-CREBBP(1081-1197)) (Homo sapiens (Human), UniProt Q92793). Put plainly: AlphaScreen in-vitro binding assay for CREBBP. To be noted: single determination or n ≧ 2 independent determinations, read-out: Biochemical IC50 CREBBP. The procedure, abridged:
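Reactions at 30 °C for 35 min, then Ni-chelate acceptor and streptavidin donor beads in HEPES pH 7.5, NaCl, Tween20, BSA, 60 min at room temperature. Eight-point compound series; IC50 by non-linear regression of percent inhibition.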

The next experiment addresses BRD3 (His-Brd3(20-477)) (Homo sapiens (Human), UniProt Q15059). The experiment in a line: TR-FRET in-vitro binding assay for BRD3. Particulars: single determination or n ≧ 2 independent determinations, read-out: Biochemical IC50 BRD3. Put shortly:
(§1)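 TR-FRET binding with His-tagged bromodomain constructs, 8-point compound dilutions from 10 mM DMSO stocks. Reactions incubated 35 min at 30° C in 13.55 μL, read on an EnVision multilabel reader.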

A further experiment relates to K-562 cells. Put plainly: Cell growth inhibition assay (CellTiter-Glo), K-562.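 On all read-outs here: cellular ATP measured by luminescence after 4 days of exposure, 3-fold dilution series from 10 µM, DMSO vehicle-treated cells define 100%, cell-free medium wells −100%.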 To be noted: for GI50: Homo sapiens, K562, read-out: K-562 GI50; for K-562 TGI: K-562 cells, total growth inhibition, CellTiter-Glo.
In the next experiment the test system is MV-4-11 cells. Put plainly: Cell growth inhibition assay (CellTiter-Glo), MV-4-11.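 On all read-outs here: cellular ATP luminescence after 4 days, 3-fold dilution series from 10 µM top dose, vehicle (0.1% DMSO) set to 100%, cell-free medium set to −100%, day 0 corrected.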 Particulars: for GI50: Homo sapiens, MV4-11, read-out: MV-4-11 GI50; for MV-4-11 TGI: MV-4-11 cells, total growth inhibition, CellTiter-Glo. A general note: In ATP-based viability assays light output follows the ATP content of the culture.
The subject of the next experiment is THP-1 cells. The experiment in a line: Cell growth inhibition assay (CellTiter-Glo), THP-1.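 On all read-outs here: viability read as cellular ATP luminescence after 4 days, 3-fold dilution series from 10 µM, DMSO vehicle-treated cells taken as 100%, cell-free medium wells as −100%.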 To be noted: for GI50: Homo sapiens, THP-1, read-out: THP-1 GI50; for THP-1 TGI: THP-1 cells, total growth inhibition, CellTiter-Glo.
Another experiment addresses BRD2 (His-Brd2(60-472)) (Homo sapiens (Human), UniProt P25440). Put plainly: TR-FRET in-vitro binding assay for BRD2. To be noted: single determination or n ≧ 2 independent determinations, read-out: Biochemical IC50 BRD2. The procedure:
TR-FRET In-Vitro Binding Assays for BRD2, BRD3, and BRD4:
All assays were performed in 384 well microtiter plates. Each assay plate contained 8-point serial dilutions for 40 test compounds, plus 16 high- and 16 low controls. Liquid handling and incubation steps were done on an Innovadyne Nanodrop Express equipped with a robotic arm (Thermo CatX, Perkin Elmer/Caliper Twister II) and an incubator (Liconic STX40, Thermo Cytomat 2C450). The assay plates were prepared by addition of 50 nl per well of compound solution in 90% DMSO HummingBird nanodispenser (Zinsser Analytic). […] Reactions were incubated at 30° C. for 35 minutes. […] After 35 minutes incubation at 30° C., plates were measured in a Perkin Elmer EnVision multilabel reader.
Preparation of Compound Dilutions
Test compounds were dissolved in DMSO (10 mM) and transferred into 1.4 mL flat bottom or V-shaped Matrix tubes carrying a unique 2D matrix. The stock solutions were stored at […] if not used immediately. For the test procedure the vials were defrosted and identified by a scanner whereby a working sheet was generated that guided the subsequent working steps.
Compound dilutions were made in 96 well plates. This format enabled the assay of maximally 40 individual test compounds at 8 concentrations (single points) including 4 reference compounds, if desired (known BET inhibitors from the prior art, for this and other assays of the type disclosed herein). The dilution protocol included the production of “pre-dilution plates”, “master plates” and “assay plates”.
Pre-Dilution Plates: 96 polypropylene well plates were used as pre-dilution plates. A total of 4 pre-dilution plates were prepared including 10 test compounds each on the plate positions A1-A10, one standard compound at A11 and one DMSO control at A12. All dilution steps were done on a HamiltonSTAR robot.
These plates were used directly for the assay which was performed in a total volume of 13.55 μL.

Another experiment addresses BRD4 (His-Brd4(44-477)) (Homo sapiens (Human), UniProt O60885). The experiment in a line: TR-FRET in-vitro binding assay for BRD4. To be noted: single determination or n ≧ 2 independent determinations, read-out: Biochemical IC50 BRD4. Put shortly: as §1
A general note: In TR-FRET formats the signal depends on donor and acceptor labels being close together.

A value given as a limit tells only on which side of the number the result lay.

Chain of CREBBP bromodomain (His-CREBBP(1081-1197)) (Q92793 1081-1197): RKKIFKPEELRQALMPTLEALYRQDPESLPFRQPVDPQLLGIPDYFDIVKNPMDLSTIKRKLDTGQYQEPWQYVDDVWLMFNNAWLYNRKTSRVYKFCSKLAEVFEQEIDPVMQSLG
Chain of BRD3 (His-Brd3(20-477)) (Q15059 20-477): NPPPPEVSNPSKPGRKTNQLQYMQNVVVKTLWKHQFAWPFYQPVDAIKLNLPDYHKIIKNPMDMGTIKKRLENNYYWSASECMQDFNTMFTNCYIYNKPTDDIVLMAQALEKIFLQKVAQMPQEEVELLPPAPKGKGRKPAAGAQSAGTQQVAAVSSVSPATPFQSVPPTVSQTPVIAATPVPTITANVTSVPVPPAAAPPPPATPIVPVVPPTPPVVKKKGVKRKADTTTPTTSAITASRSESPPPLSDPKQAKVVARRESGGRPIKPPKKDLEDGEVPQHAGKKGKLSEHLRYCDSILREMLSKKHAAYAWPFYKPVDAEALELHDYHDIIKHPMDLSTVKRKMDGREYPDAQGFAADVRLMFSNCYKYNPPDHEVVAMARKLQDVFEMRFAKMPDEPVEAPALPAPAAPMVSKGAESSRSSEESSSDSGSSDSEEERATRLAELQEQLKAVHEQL
Chain of BRD2 (His-Brd2(60-472)) (P25440 60-472): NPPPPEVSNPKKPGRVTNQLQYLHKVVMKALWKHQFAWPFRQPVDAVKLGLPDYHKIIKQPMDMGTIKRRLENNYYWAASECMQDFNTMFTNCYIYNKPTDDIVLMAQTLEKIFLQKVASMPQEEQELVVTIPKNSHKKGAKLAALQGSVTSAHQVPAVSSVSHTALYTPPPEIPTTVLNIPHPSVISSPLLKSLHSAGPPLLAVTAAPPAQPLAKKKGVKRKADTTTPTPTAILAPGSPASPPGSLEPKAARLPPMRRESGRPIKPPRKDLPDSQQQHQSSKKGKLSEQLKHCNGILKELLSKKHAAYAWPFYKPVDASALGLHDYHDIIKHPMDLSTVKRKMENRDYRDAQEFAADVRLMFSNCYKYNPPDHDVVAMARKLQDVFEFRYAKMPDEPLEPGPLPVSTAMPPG

For `Cc1cc(N2C(=O)c3nc(C4=CCOCC4)n(C(C)C)c3C2c2ccc(Cl)cc2)cn2c(CF)nnc12` (stereo not drawn) [Example 88, 6-(4-chlorophenyl)-2-(3,6-dihydro-2H-pyran-4-yl)-5-(3-(fluoromethyl)-8-methyl-[1,2,4]triazolo[4,3-a]pyridin-6-yl)-1-isopropyl-5,6-dihydropyrrolo[3,4-d]imidazol-4(1H)-one], the half-maximal inhibitory concentration (IC50) in experiment [1] amounted to 15000 nM; on BRD3 (His-Brd3(20-477)), 43 nM; at BRD2 (His-Brd2(60-472)), 75 nM; on BRD4 (His-Brd4(44-477)), 39 nM. Also, the GI50 stood at 172 nM with K-562 cells, 23.7 nM with MV-4-11 cells and 42.8 nM with THP-1 cells. Further, the “K-562 TGI” value in the experiment on K-562 cells is above 10000 nM. For the same compound, the “MV-4-11 TGI” value in the experiment with MV-4-11 cells came to 39.85 nM. In addition, the “THP-1 TGI” value with THP-1 cells came out at 112.1 nM.
For the compound `COc1ccc(-c2nc3c(n2C(C)C)C(c2ccc(Cl)cc2)N(c2cc(C)c4nnn(C)c4n2)C3=O)cn1` (stereo not drawn) [Example 138, 6-(4-chlorophenyl)-5-(3,7-dimethyl-3H-[1,2,3]triazolo[4,5-b]pyridin-5-yl)-1-isopropyl-2-(6-methoxypyridin-3-yl)-5,6-dihydropyrrolo[3,4-d]imidazol-4(1H)-one], the IC50 in experiment [1] was above 37000 nM; at BRD3 (His-Brd3(20-477)) it was 11 nM; on BRD2 (His-Brd2(60-472)), 26 nM; on BRD4 (His-Brd4(44-477)), 11 nM. In addition, the GI50 with K-562 cells came to 37.2 nM; with MV-4-11 cells, 7.97 nM; in the experiment with THP-1 cells it was 9.37 nM. The “K-562 TGI” value in the experiment with K-562 cells is above 10000 nM. Further, the “MV-4-11 TGI” value in the experiment on MV-4-11 cells came out at 13 nM. In addition, the “THP-1 TGI” value in the experiment with THP-1 cells was found to be 23.6 nM.
For `COc1ncc(-c2nc3c([nH]2)[C@@H](c2ccc(Cl)cc2)N(c2cc(OC)c4nnc(C)n4c2)C3=O)c(OC)n1` [Example 128, (R)-6-(4-chlorophenyl)-2-(2,4-dimethoxypyrimidin-5-yl)-5-(8-methoxy-3-methyl-[1,2,4]triazolo[4,3-a]pyridin-6-yl)-5,6-dihydropyrrolo[3,4-d]imidazol-4(1H)-one], the IC50 in experiment [1] is 16400 nM; at BRD3 (His-Brd3(20-477)), 136 nM; at BRD2 (His-Brd2(60-472)) it was 220 nM; on BRD4 (His-Brd4(44-477)), 84.5 nM. For the same compound, the GI50 is 1230 nM in the experiment with K-562 cells, 188 nM in the experiment with MV-4-11 cells and 371 nM in the experiment with THP-1 cells. Further, the “K-562 TGI” value with K-562 cells was above 10000 nM. Also, in the experiment on MV-4-11 cells, the “MV-4-11 TGI” value is 350.5 nM. Also, the “THP-1 TGI” value in the experiment with THP-1 cells came to 947 nM.
In the case of `COc1ncccc1-c1nc2c(n1C(C)C)[C@@H](c1ccc(Cl)cc1)N(c1cc(C)c3nnn(C)c3n1)C2=O` [Example 158, (R)-6-(4-chlorophenyl)-5-(3,7-dimethyl-3H-[1,2,3]triazolo[4,5-b]pyridin-5-yl)-1-isopropyl-2-(2-methoxypyridin-3-yl)-5,6-dihydropyrrolo[3,4-d]imidazol-4(1H)-one], the IC50 was above 37000 nM in experiment [1], below 11 nM at BRD3 (His-Brd3(20-477)), 16 nM on BRD2 (His-Brd2(60-472)) and below 11 nM at BRD4 (His-Brd4(44-477)). The GI50 was 8.73 nM with K-562 cells, 1.64 nM in the experiment on MV-4-11 cells and 2 nM with THP-1 cells. Further, in the experiment on K-562 cells, the “K-562 TGI” value is above 10000 nM. Further, in the experiment on MV-4-11 cells, the “MV-4-11 TGI” value came out at 3.29 nM. The “THP-1 TGI” value in the experiment on THP-1 cells was determined as 5.065 nM.
For `Cc1cc(N2C(=O)c3nc(C4=CCN(C)CC4)n(C(C)C)c3C2c2ccc(Cl)cc2)cn2c(C)nnc12` (stereo not drawn) [Example 50, 6-(4-Chlorophenyl)-5-(3,8-dimethyl-[1,2,4]triazolo[4,3-a]pyridin-6-yl)-1-isopropyl-2-(1-methyl-1,2,3,6-tetrahydropyridin-4-yl)-5,6-dihydropyrrolo[3,4-d]imidazol-4(1H)-one], the IC50 in experiment [1] was found to be 5400 nM; at BRD3 (His-Brd3(20-477)) it was 23.5 nM; at BRD2 (His-Brd2(60-472)) it was 41 nM; at BRD4 (His-Brd4(44-477)), 27 nM. Moreover, the values for the GI50 in the experiment with K-562 cells, with MV-4-11 cells and in the experiment with THP-1 cells were 575 nM, 28.8 nM and 233 nM, respectively. In addition, the “K-562 TGI” value in the experiment with K-562 cells was above 10000 nM. The “MV-4-11 TGI” value in the experiment on MV-4-11 cells was 57.1 nM. Further, in the experiment on THP-1 cells, the “THP-1 TGI” value stood at 495 nM.
Take `COc1ncccc1-c1nc2c(n1C(C)C)[C@@H](c1ccc(Cl)cc1)N(c1cc(OC)c3nnn(C)c3c1)C2=O` [Example 111]: the IC50 in experiment [1] is 8900 nM; at BRD3 (His-Brd3(20-477)), 20 nM; on BRD2 (His-Brd2(60-472)) it was 33 nM; on BRD4 (His-Brd4(44-477)), 14 nM. The GI50 in the experiment on K-562 cells came to 90.1 nM; in the experiment with MV-4-11 cells, 18.6 nM; with THP-1 cells, 40.2 nM. The “K-562 TGI” value in the experiment on K-562 cells was above 10000 nM. In the experiment on MV-4-11 cells, the “MV-4-11 TGI” value stood at 44.65 nM. Further, the “THP-1 TGI” value with THP-1 cells was 92.1 nM.
Consider `COc1ccc(-c2nc3c([nH]2)[C@@H](c2ccc(Cl)cc2)N(c2cc(OC)c4nnc(C)n4c2)C3=O)cn1` [Example 126, (R)-6-(4-chlorophenyl)-5-(8-methoxy-3-methyl-[1,2,4]triazolo[4,3-a]pyridin-6-yl)-2-(6-methoxypyridin-3-yl)-5,6-dihydropyrrolo[3,4-d]imidazol-4(1H)-one], for which the IC50 in experiment [1] was determined as 25900 nM; on BRD3 (His-Brd3(20-477)), 283 nM; on BRD2 (His-Brd2(60-472)) it was 385 nM; on BRD4 (His-Brd4(44-477)), 104 nM. Besides, the GI50 in the experiment on K-562 cells is 2270 nM; in the experiment on MV-4-11 cells, 408 nM; with THP-1 cells it was 947 nM. Also, in the experiment on K-562 cells, the “K-562 TGI” value is above 10000 nM. Moreover, the “MV-4-11 TGI” value with MV-4-11 cells stood at 592 nM. Moreover, the “THP-1 TGI” value in the experiment with THP-1 cells stood at 1700 nM.
On to `COc1ncccc1-c1nc2c(n1C(C)C)C(=O)N(c1cc(C)c(=O)n(C)c1)C2c1ccc(Cl)cc1` (stereo not drawn) [Example 44, 6-(4-chlorophenyl)-5-(1,5-dimethyl-6-oxo-1,6-dihydropyridin-3-yl)-3-isopropyl-2-(2-methoxypyridin-3-yl)-5,6-dihydropyrrolo[3,4-d]imidazol-4(3H)-one], for which the IC50 in experiment [1] was determined as 1000 nM; on BRD3 (His-Brd3(20-477)), 39 nM; at BRD2 (His-Brd2(60-472)), 33 nM; at BRD4 (His-Brd4(44-477)), 39 nM.
As to `CCn1c(C)nc2c1C(=O)N(c1cc(C)c3nnn(C)c3c1)[C@@H]2c1ccc(Cl)cc1` [Example 122, (R)-6-(4-chlorophenyl)-5-(3,7-dimethyl-3H-benzo[d][1,2,3]triazol-5-yl)-3-ethyl-2-methyl-5,6-dihydropyrrolo[3,4-d]imidazol-4(3H)-one], the concentration for half-maximal inhibition (IC50) in experiment [1] amounted to 2620 nM; on BRD3 (His-Brd3(20-477)) it was 26 nM; on BRD2 (His-Brd2(60-472)), 21.5 nM; on BRD4 (His-Brd4(44-477)), 19 nM.
On the same counts, the results for `Cc1cc(N2C(=O)c3nc(-c4nccs4)n(C(C)C)c3[C@H]2c2ccc(Cl)cc2)cn(C)c1=O` [Example 24, (R)-6-(4-chlorophenyl)-5-(1,5-dimethyl-6-oxo-1,6-dihydropyridin-3-yl)-1-isopropyl-2-(thiazol-2-yl)-5,6-dihydropyrrolo[3,4-d]imidazol-4(1H)-one] are 455 nM, 41.5 nM, 30 nM and 42.5 nM.
In the same order, the values of `COc1ncccc1-c1nc2c([nH]1)C(c1ccc(Cl)cc1)N(c1cc(C)c3nnc(C)n3c1)C2=O` (stereo not drawn) [Example 123, 6-(4-chlorophenyl)-5-(3,8-dimethyl-[1,2,4]triazolo[4,3-a]pyridin-6-yl)-2-(2-methoxypyridin-3-yl)-5,6-dihydropyrrolo[3,4-d]imidazol-4(1H)-one] are 5500 nM, 87 nM, 97 nM and 65 nM.
In the same order, the values of `Cc1cc(N2C(=O)c3nc(-c4ccc[nH]4)n(C(C)C)c3C2c2ccc(Cl)cc2)cn(C)c1=O` (stereo not drawn) [Example 30, 6-(4-chlorophenyl)-5-(1,5-dimethyl-6-oxo-1,6-dihydropyridin-3-yl)-1-isopropyl-2-(1H-pyrrol-2-yl)-5,6-dihydropyrrolo[3,4-d]imidazol-4(1H)-one] are 1000 nM, 100 nM, 92 nM and 120 nM.

The IC50 is the concentration that inhibits the measured activity by half. As a reminder, the GI50 is the concentration at which growth is held to half of that of the control.

The values are drawn from patent publication US9890166B2, “Imidazopyrrolidine derivatives and their use in the treatment of disease” (NOVARTIS AG, priority 2013, dated 2018).
